Earlier results as cited in patent US20090325888A1, “Peptides having a health benefit and compositions comprising them” (priority 2005, published 2009).

What was measured:
ACE = ACE (Homo sapiens, UniProt P12821)
hypertensive humans = conditions: in sour milk, Hata 1996

Chain of ACE (P12821 30-1306, species assumed): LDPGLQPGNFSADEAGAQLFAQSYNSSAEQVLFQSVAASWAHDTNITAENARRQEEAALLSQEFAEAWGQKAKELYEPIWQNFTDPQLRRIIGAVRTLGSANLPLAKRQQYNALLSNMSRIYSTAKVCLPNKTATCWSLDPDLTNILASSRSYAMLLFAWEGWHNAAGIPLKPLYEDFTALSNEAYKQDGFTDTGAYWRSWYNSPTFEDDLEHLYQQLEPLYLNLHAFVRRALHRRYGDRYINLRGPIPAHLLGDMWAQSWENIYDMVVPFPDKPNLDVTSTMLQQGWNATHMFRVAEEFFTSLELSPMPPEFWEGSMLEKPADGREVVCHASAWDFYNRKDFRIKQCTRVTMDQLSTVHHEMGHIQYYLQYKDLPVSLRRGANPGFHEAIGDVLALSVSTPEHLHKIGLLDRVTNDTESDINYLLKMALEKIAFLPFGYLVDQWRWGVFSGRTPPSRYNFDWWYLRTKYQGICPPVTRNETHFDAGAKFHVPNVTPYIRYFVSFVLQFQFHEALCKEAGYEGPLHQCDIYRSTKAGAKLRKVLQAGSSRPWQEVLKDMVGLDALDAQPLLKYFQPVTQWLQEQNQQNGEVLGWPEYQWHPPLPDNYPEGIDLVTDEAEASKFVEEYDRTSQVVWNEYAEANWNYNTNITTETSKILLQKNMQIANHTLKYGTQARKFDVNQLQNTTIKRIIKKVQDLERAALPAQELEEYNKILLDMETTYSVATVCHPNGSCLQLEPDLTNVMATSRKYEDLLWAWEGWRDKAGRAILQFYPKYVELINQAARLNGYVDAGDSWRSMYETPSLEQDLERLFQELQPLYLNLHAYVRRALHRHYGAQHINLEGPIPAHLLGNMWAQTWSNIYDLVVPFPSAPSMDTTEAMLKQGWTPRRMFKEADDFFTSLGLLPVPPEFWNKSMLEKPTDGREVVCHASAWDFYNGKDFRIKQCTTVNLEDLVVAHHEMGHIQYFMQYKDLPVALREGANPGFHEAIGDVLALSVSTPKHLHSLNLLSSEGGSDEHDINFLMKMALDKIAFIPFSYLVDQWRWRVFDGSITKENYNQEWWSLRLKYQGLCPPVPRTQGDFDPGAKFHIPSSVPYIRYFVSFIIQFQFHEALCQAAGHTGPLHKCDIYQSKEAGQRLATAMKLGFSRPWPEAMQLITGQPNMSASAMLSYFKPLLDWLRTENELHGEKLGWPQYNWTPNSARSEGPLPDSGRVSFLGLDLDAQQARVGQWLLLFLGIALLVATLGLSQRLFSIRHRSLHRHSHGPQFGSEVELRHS

in vitro ACE inhibition (ACE; peptides in fermented milk products) | IC50 (ACE; Nakamura 1995, Aryoshi 1993, read-out: IC50 values reported earlier as ACEI peptides) [µM] | Molecule | blood pressure lowering effect (hypertensive humans)
in vitro ACE inhibition | – | CC[C@H](C)[C@H](N)C(=O)N1CCC[C@H]1C(=O)N1CCC[C@H]1C(=O)O [IPP] | blood pressure lowering effect
– | 9.6 | LPP: known ACE inhibiting tripeptide, β-casein f151-153 (UniProt P02666 166-168, looked up, fragment) | –
